*1 amine or outer side, *2 acyl side, *3 side chain or, on linkers, in order; H or OH if unused. Where a SMILES comes first, the peptide text is derived from it. Bridges are numbered along the chain shown (N, C = ends). [ ]: non-standard residue; d: D form. The star is where a group is joined. ξ: configuration not given here. X2 = CC(C)C(NC(=O)CCN1C(=O)C=CC1=O)C(=O)N[C@@H](C)C(=O)Nc1ccc(CN*)cc1; ξTrp(2-yl) = O=C(C(Cc1c([*:3])[nH]c2ccccc12)N[*:1])[*:2]; Ile(4R-OH,5-OH) = C[C@H]([C@H](N)C(=O)O)[C@@H](O)CO; X3 = CC([C@H](N[*:1])C(=O)[*:2])[C@@H](O)CO; X1 = O=C([C@@H]1CC(O)CN1[*:1])[*:2]; ξD = NC(CC(=O)O)C(=O)O; ξC = NC(CS)C(=O)O
Key:
[1] = reactivity with cysteine in PBS buffer, RP-HPLC C18; format: physicochemical; conditions: 1 mg/mL compound, 10 mg/mL cysteine in PBS, pH 7.4 at 37° C. after 24 h, 48 h and 6 d
Description: 1 mg/ml α-amanitin 10 mg/mL cysteine in PBS, pH 7.4 at 37° C. after 24 h, 48 h and 6 d RP-HPLC C18.
1 mg/mL β-amanitin 10 mg/mL cysteine in PBS, pH 7.4 at 37° C. after 24 h, 48 h and 6 d RP-HPLC […].
1 mg/mL amanin 10 mg/mL cysteine in PBS, pH 7.4 at 37° C. after 24 h, 48 h and 6 d RP-HPLC […].
1 mg/mL HDP 30.2105, 10 mg/mL cysteine in PBS, pH 7.4 at 37° C. after 24 h, 48 h and 6 d RP-HPLC C18; * impurity.

[2] = Western-Blot analysis of T-D265C conjugates after incubation in human plasma, mouse plasma and PBS; format: in vitro ADME; conditions: conjugated to T-D265C antibody; 37° C. in human plasma, mouse plasma and PBS for 0, 4 and 10 days
Description: Western-Blot analysis of amatoxin derivatives HOP 30.1699, HDP 30.2060 and HDP 30.2115 conjugated to T-D265C antibody after incubation at 37° C. in human plasma, mouse plasma an phosphate buffered saline (PBS) for 0, 4 and 10 days. Detection was done with a polyclonal anti-amanitin antibody from rabbit and an anti-rabbit antibody conjugated to horseradish peroxidase.

[3] = tested on: SKBR-3 cells; assay: cytotoxicity assay on SKBR-3 cells after plasma/PBS stressing of ADCs; format: cell-based; conditions: conjugated to T-D265C, SKBR-3 cells 96 h
Description: Test items were incubated in human plasma at 37° C. for 0 an 4 days. Cytotoxicity assay were performed on SKBR-3 cells for 96 h.
Test items were incubated in mouse plasma at 37° C. for 0 an 4 days. Cytotoxicity assay were performed on SKBR-3 cells for 96 h.
Test items were incubated in PBS at 37° C. for 0 an 4 days. Cytotoxicity assay were performed on SKBR-3 cells for 96 h. All ADCs show adequate stability to non-enzymatic environment.

[4] = molecular target: RNA-polymerase II (Homo sapiens, UniProt P24928); conditions: complex between amanitin and RNA-polymerase II; cited from earlier work

CC[C@H](C)[C@@H]1NC(=O)CNC(=O)C2Cc3c([nH]c4ccccc34)SCC(NC(=O)CNC1=O)C(=O)NC(CC(=O)O)C(=O)N1CC(O)C[C@H]1C(=O)N[C@@H](C(C)[C@@H](O)CO)C(=O)N2 (some centres unmarked) [HDP 30.2105] (cyclo(GIG[ξC][ξD][X1][X3][ξTrp(2-yl)]); thioether 4-8)
reactivity with cysteine [1]: complete absence of reactivity

CC[C@H](C)[C@@H]1NC(=O)CNC(=O)C2Cc3c([nH]c4ccccc34)SCC(NC(=O)CNC1=O)C(=O)N[C@@H](CC(=O)NCc1ccc(NC(=O)[C@H](C)NC(=O)C(NC(=O)CCN3C(=O)C=CC3=O)C(C)C)cc1)C(=O)N1CC(O)C[C@H]1C(=O)N[C@@H]([C@@H](C)[C@@H](O)CO)C(=O)N2 (stereo partly drawn) [HDP 30.2115] (cyclo(D(X2)[X1][Ile(4R-OH,5-OH)][ξTrp(2-yl)]GIG[ξC]); thioether 4-8)
cross-links and loss of the amatoxin moiety (stability) [2]: high stability and significantly reduced cross-links | cytotoxicity after plasma stressing ([3]; human plasma at 37° C. for 0 and 4 days): still picomolar activity | cytotoxicity after plasma stressing ([3]; mouse plasma at 37° C. for 0 and 4 days): remains almost unchanged

amanin
reactivity with cysteine [1]: reduced reactivity

amanitin
Kd [4]: 3 nM

α-Amanitin
reactivity with cysteine [1]: strong reactivity

β-Amanitin
reactivity with cysteine [1]: strong reactivity

Source: patent publication US12201693B2, “Amanitin conjugates” (Heidelberg Pharma Research GmbH, priority 2016, dated 2025)
